Experimental data reported in ChEMBL document CHEMBL1148934, “Antitubercular sesterterpenes from the Thai sponge Brachiaster sp” (J Nat Prod, 2004).
pIC50: −log10 of the molar value. ≈ marks a conversion by molar mass, not a printed value.

Legend:
MCF7 [1] = assay: Cytotoxicity against human MCF7 cells by SRB assay; type: functional, cell-based
KB [2] = assay: Cytotoxicity against human KB cells by SRB assay; type: functional, cell-based
HeLa [3] = assay: Cytotoxicity against human HeLa cells by SRB assay; type: functional, cell-based
[4] = system: Mycobacterium tuberculosis; assay: Antitubercular activity against Mycobacterium tuberculosis H37Ra ATCC 25177 after 4 days by microtiter plate alamar blue technique; type: functional, organism-based; details: 96 h
HT-29 [5] = assay: Cytotoxicity against human HT29 cells by SRB assay; type: functional, cell-based
KB [6] = assay: Cytotoxicity against human KB cells at 10 uM by SRB assay; type: functional
HT-29 [7] = assay: Cytotoxicity against human HT29 cells at 10 uM by SRB assay; type: functional
HeLa [8] = assay: Cytotoxicity against human HeLa cells at 10 uM by SRB assay; type: functional
MCF7 [9] = assay: Cytotoxicity against human MCF7 cells at 10 uM by SRB assay; type: functional
[10] = system: Mycobacterium tuberculosis; assay: Antimycobacterial activity against Mycobacterium tuberculosis H37Rv; type: functional

SMILES | pIC50 (MCF7 [1]) | pIC50 (KB [2]) | pIC50 (HeLa [3]) | MIC [4] [µM] | pIC50 (HT-29 [5]) | Activity (KB [6]) [%] | Activity (HT-29 [7]) [%] | Activity (HeLa [8]) [%] | pIC50 [4] | Activity (MCF7 [9]) [%] | MIC [10] [µg/mL]
CC1(C)CCC[C@]2(C)[C@H]3C[C@@H](O)[C@]4(C)[C@H]5COC(=O)C5=CC[C@H]4[C@]3(C)CC[C@@H]12 | 6.49 | 6.12 | 5.70 | 16 (≈ 6.19 µg/mL) | 6.04 | – | – | – | – | – | –
CC(=O)OCC1=CC(=O)O[C@@H]1C/C=C(\CC/C=C(\C)CCC1=C(C)CCCC1(C)C)COC(C)=O | 5.03 | – | – | 51 (≈ 24.8 µg/mL) | – | 80 | 80 | 80 | – | – | –
CC(=O)O[C@@H]1C[C@@H]2[C@@]3(C)CCCC(C)(C)[C@@H]3CC[C@@]2(C)[C@@H]2CC=C3C(=O)OC[C@@H]3[C@@]12C | – | 5.52 | 5.26 | – | 5.63 | – | – | – | 3.93 | – | –
CC(=O)O[C@@H]1OC(=O)C=C1[C@H]1CC=C(CC/C=C(\C)CCC2=C(C)CCCC2(C)C)[C@H](O)O1 | 6.59 | 6.20 | 5.77 | 7 (≈ 3.21 µg/mL) | 6.12 | – | – | – | – | – | –
CC(=O)O[C@@H]1OC(=O)C2=CC[C@H]3[C@]4(C)CC[C@H]5C(C)(C)CCC[C@]5(C)[C@H]4CC[C@]3(C)[C@H]21 | – | – | – | 4 (≈ 1.71 µg/mL) | – | 80 | 80 | 80 | – | 80 | –
CC(=O)OCC1=CC(=O)O[C@@H]1C/C=C(/CC/C=C(\C)CCC1=C(C)CCCC1(C)C)COC(C)=O | 5.22 | – | – | 26 (≈ 12.7 µg/mL) | – | 80 | 80 | 80 | – | – | –
CC(=O)O[C@@H]1OC=C2[C@@H](OC(C)=O)C[C@H]3[C@]4(C)CC[C@H]5C(C)(C)CCC[C@]5(C)[C@H]4C[C@@H](OC(C)=O)[C@]3(C)[C@H]21 [HETERONEMIN ACETATE] | 5.19 | – | – | 6 | – | 80 | 80 | 80 | – | – | –
CC(=O)O[C@@H]1OC=C2[C@@H](OC(C)=O)C[C@H]3[C@]4(C)CC[C@H]5C(C)(C)CCC[C@]5(C)[C@H]4C[C@@H](O)[C@]3(C)[C@H]21 [HETERONEMIN] | 6.54 | 6.43 | 6.35 | 3 (≈ 1.47 µg/mL) | 6.41 | – | – | – | – | – | 6.25 (≈ 12.8 µM)
NNC(=O)c1ccncc1 [ISONIAZID] | – | – | – | 0.29 (≈ 0.0398 µg/mL) | – | – | – | – | – | – | –
NC[C@H]1O[C@H](O[C@H]2[C@H](O)[C@@H](O[C@H]3O[C@H](CO)[C@@H](O)[C@H](N)[C@H]3O)[C@H](N)C[C@@H]2N)[C@H](O)[C@@H](O)[C@@H]1O [KANAMYCIN] | – | – | – | 3.5 (≈ 1.7 µg/mL) | – | – | – | – | – | – | –
